Results taken from patent publication US11572540B2, “Method for inducing oligodendrocyte precursor cells from OCT4-induced human somatic cells through direct reprogramming” (Stemlab Inc., priority 2015, dated 2023).

Test system: Oct4-introduced Sox10::eGFP fibroblasts
Test: FACS analysis of Sox10::eGFP reporter expression after low molecular weight substance treatment
Assay type: cell-based, human
Conditions: 10 μM forskolin added to ATVP medium
Source text: The inventors have established conditions capable of inducing neural stem cells from mouse cells only with a low molecular weight substance without gene introduction (KR 10-1357402). Accordingly, to establish new conditions capable of inducing human somatic cells into OPCs on the basis of the low molecular weight substance that had been established in the previous study, a low molecular weight substance was selected using a Sox10 reporter system (Sox10::eGFP), which is a gene known to be important in development of oligodendrocytes (FIG. 1). When Oct4 gene-introduced cells were cultured in a reprogramming medium (RM: DMEM with high Glucose+5% knock out serum replacement (KSR)+1% penicillin/streptomycin+1% non-essential amino acids+20 ng/ml basic FGF (bFGF)+20 ng/ml human recombinant platelet derived growth factor (PDGF)+50 μg/ml ascorbic acid), one week after induction, it was confirmed that a cell length was shorter and a cell size was smaller through mesenchymal to epithelial transition (MET), thereby forming an epithelial-like colony. […]

Which “Sox10::eGFP expression (GFP+ distribution, FACS)” value does the source give for `C=C[C@@]1(C)CC(=O)[C@]2(O)[C@@]3(C)[C@@H](O)CCC(C)(C)[C@@H]3[C@H](O)[C@H](OC(C)=O)[C@@]2(C)O1` [forskolin] here?
The value was 3.31%.
